Experimental data from patent publication US9555040B2, “Methods of treating proliferative diseases” (Ambit Biosciences Corporation, priority 2009, dated 2017).

Tests used:
[1] = Animal toxicology studies; type: in vivo
[2] = test system: relapsed or refractory acute myeloid leukemia; assay: Phase I clinical trial: efficacy, responses per modified Cheson criteria; type: in vivo, human
Procedure: The study was open labeled and designed to determine the safety, tolerability, dose limiting toxicity (DLT), pharmacokinetics and pharmacodynamics of escalating doses.
The study included adult patients with relapsed or refractory AML, or unsuitable for induction chemotherapy.
Patients with clinical benefit were allowed to continue for additional cycles at the discretion of the investigator. The protocol was subsequently amended to allow for continuous dosing of the compound starting at 200 mg on Day 1.
Preliminary response data was evaluated in all 76 patients treated with the compound.
Responses were defined per modified Cheson criteria.

[3] = Phase I clinical trial: plasma pharmacokinetics; type: in vivo, human
Procedure: In addition, plasma samples were collected on day 15 (˜24 hrs post final dose) to evaluate steady-state trough levels. Bioanalysis of the compound was initially conducted at Consolidated Laboratory Services (CLS), Van Nuys, Calif. […] The coefficient of variation (CV %) for AUCO-24 at steady-state is modest at the lowest dose of 12 mg (33%) and high for the 450 mg cohort (82%). While the variability tended to be higher at higher doses, there was not a clear relationship between variability and either dose or […].
This analysis was conducted at MicroConstants, San Diego, Calif.

[4] = test system: pSTAT5; assay: Pharmacodynamics: pSTAT5 in patient samples; type: in vivo, human; settings: subset of 17 patients, very preliminary
Description: STATS is a downstream signaling pathway activated by FLT3 following binding of FLT3 ligand leading to receptor dimerization, increased kinase activity and activation of downstream signaling pathways including STATS.

[5] = Phase I clinical trial: safety, tolerability, dose limiting toxicity; type: in vivo, human
Description: This study was the first human clinical trial of the compound of Formula I or a pharmaceutically acceptable salt or solvate thereof in humans having relapsed or refractory acute myeloid leukemia. The study was open labeled and designed to determine the safety, tolerability, dose limiting toxicity (DLT), pharmacokinetics and pharmacodynamics of escalating doses.
The study included adult patients with relapsed or refractory AML, or unsuitable for induction chemotherapy. Demographics and baseline characteristics were as follows: median age was 60 years, with a range of 23-86 years. Sixty percent of the patients were male. […] Eleven (15%) patients had prior allogeneic hematopoietic stem cell transplant (HSCT) and 13 (17%) patients had secondary AML with antecedent MDS or MDS/MPD. A total of 20 patients had FLT3 mutations (17 ITD and 3 D835), 43 were wild-type, and 13 were undetermined.
Patients with clinical benefit were allowed to continue for additional cycles at the discretion of the investigator. The protocol was subsequently amended to allow for continuous dosing of the compound starting at 200 mg on Day 1. In addition to patients included in the 200 mg (17 patients) and 300 mg (8 patients) continuous dosing cohort, there were at least 8 patients who, at the investigators discretion and per protocol, received continuous dosing after cycle 1 of intermittent dosing ranging from 19-187 days.
In addition, the safety profile was similar between patients receiving continuous dosing and those on the intermittent schedule. These included general disorders (e.g., pyrexia and fatigue), gastrointestinal disorders (e.g., nausea, diarrhea and vomiting) and hematologic disorders (eg, anemia, neutropenia and thrombocytopenia).
Out of the 76 patients treated with the compound in this study, 38 patients (50%) reported a total of 94 serious adverse events (SAEs) (defined as CTC Grade 3 or greater). The majority of the SAEs were considered by the investigator to be not related to study treatment. Only 6 patients (7.9%) reported SAEs that were initially considered to be related to treatment with the compound. These included one patient with lung infection, one patient with vomiting and one patient with nausea, anorexia, and upper abdominal pain. The investigator subsequently revised the event of anorexia for the patient to non-serious. In addition, three patients were noted by the site investigators using local ECG analysis to have reported Grade 3 QTc prolongation of >500 ms which was considered to be a dose-limiting toxicity for the study according to the protocol.
Based on the site reported dose-limiting toxicity of Grade 3 QTc prolongation, a detailed evaluation of the cardiac safety of the compound was conducted. As defined in the protocol, a single 12-lead electrocardiogram (ECG) had been performed using standardized equipment at the site at Visits 1 (screen), 2 (Baseline—at Hours 0, 2, and 4), 4 (Day 8 at Hours 0 and 4), and depending on the version of the protocol active at the time of assessment for each patient, 6 (Day 14 or 15), 7 (Day 21 or 22), 8 (Day 28 or 29), 9 (Day 36), 10 (Day 43), 11 (Day 50), 12 (Day 57) and at the end of the study or early termination. ECG assessments and interpretations initially were performed by the site's cardiologist or other qualified site personnel. To improve upon the accuracy of these locally-analyzed data, a central digitized blinded analysis of all ECGs collected to date was undertaken by a core ECG laboratory (EResearchTechnology in Philadelphia, Pa.). Due to some issues with readability, 72 patients (out of 76 patients enrolled in the study) were included in this analysis. […] The phase I study was not designed to define the ECG effects of the compound, which will be more closely monitored in the phase II study.

[6] = FLT3-ITD patients, 200 mg continuous dosing (n=5)
[7] = patients with FLT3-ITD mutation (n=17)

## CC(C)(C)c1cc(NC(=O)Nc2ccc(-c3cn4c(n3)sc3cc(OCCN5CCOCC5)ccc34)cc2)no1 [compound of formula I, N-(5-tert-butyl-isoxazol-3-yl)-N′-{4-[7-(2-morpholin-4-yl-ethoxy)imidazo[2,1-b][1,3]benzothiazol-2-yl]phenyl}urea]
[1]
  target organ toxicity: Bone marrow hypocellularity
[2]; 15/22 responders
  bone marrow responses within the first 29 days of treatment (Cycle 1): 68%
[2]; [6]
  CR: 1 patients
  CRi: 1 patients
  CRp: 1 patients
  PR: 2 patients
[2]; FLT3-ITD patients, 200 mg continuous dosing, 5/5
  overall response rate (CR+CRp+CRi+PR): 100%
[2]; all 76 patients
  CR with complete hematologic recovery: 2 patients
  CR with incomplete platelet and neutrophil recovery (CRi): 4 patients
  CR with incomplete platelet recovery (CRp): 4 patients
  patients achieving complete remission (CR, all types): Ten
  patients with partial remission (PR): Fourteen
[2]; all patients
  peripheral blast reduction (>25% at baseline with >50% decrease post-treatment to 0-25%): most patients had a peripheral blast reduction
[2]; all patients, 12 mg-450 mg, 24/76
  overall response (CR+PR): 32%
[2]; of the remaining 7 responders
  patients reporting a response after Cycle 2: 3 patients
  patients reporting a response within 57 days (Cycle 2): 4 patients
[2]; [7]
  CR: 1 patients
  CRi: 3 patients
  CRp: 1 patients
  PR: 6 patients
[2]; patients with FLT3-ITD mutation, 11/17
  overall response rate: 65%
[2]; range, 4 to 61+ weeks
  median duration of remission: 14.1 weeks
[3]; human, in vivo
  dose dependence of steady-state plasma exposure (AUC): increased in a dose proportional manner
  peak and trough variation of plasma levels: minimal peak and trough variation
  time to steady-state plasma exposure: ≤ 8 days
[3]; human, in vivo, 12 mg
  coefficient of variation (CV %) for AUC0-24 at steady-state: 33%
[3]; human, in vivo, 450 mg
  coefficient of variation (CV %) for AUC0-24 at steady-state: 82%
[3]; human, in vivo, effective half-life
  half-life: ~36 h
[3]; human, in vivo, po
  oral bioavailability: orally bioavailable
[3]; human, in vivo, terminal T1/2
  half-life: 31.2 h
[4]
  effect on pSTAT5: dose-dependent effect is consistent with that observed with pFLT3
[5]; 76 patients, to date
  30-day treatment-related mortality: no 30-day treatment-related mortality
[5]; all deaths disease or comorbidity associated, not treatment related
  patients who died during the study: 12 patients
[5]; both, human, in vivo
  grade of the majority of treatment-related adverse events: CTC Grade 1 and 2
  patients reporting SAEs initially considered related to treatment: 7.9%
  patients reporting serious adverse events (CTC Grade 3 or greater): 50%
  total number of serious adverse events reported: 94
[5]; human, in vivo
  liver or kidney abnormalities as drug-related serious adverse events (BUN, creatinine, ALT, AST, ALP, bilirubin): no liver or kidney abnormalities
  patients with Grade 3 QTc prolongation of >500 ms (dose-limiting toxicity): three

## CC(C)(CO)c1cc(NC(=O)Nc2ccc(-c3cn4c(n3)sc3cc(OCCN5CCOCC5)ccc34)cc2)no1 [compound of formula II]
[3]; human plasma, n=60
  average steady state plasma ratio of formula II/I: 0.4
  plasma ratio of compounds of formula II/I, highest in one patient: ≤ 3.14
[3]; patients dosed at 200 mg of the compound of formula I
  steady-state plasma level: ~300 ng/mL
